Common to all, as to format: functional
For test [1], the system named is Fonsecaea compacta. In words: Potency index, ratio of fluconazole MIC to test compound MIC for Fonsecaea compacta.
In test [2] the test system is Fonsecaea compacta. In words: Antifungal activity against Fonsecaea compacta after 24 hrs by microbroth dilution method. (In broth dilution the organism is exposed to a series of concentrations in liquid medium.)
The test system of test [3] is Aspergillus fumigatus. In words: Antifungal activity against Aspergillus fumigatus after 24 hrs by microbroth dilution method.
The test system of test [4] is Trichophyton rubrum. In words: Antifungal activity against Trichophyton rubrum after 24 hrs by microbroth dilution method.
Test [5] concerns Cryptococcus neoformans. In words: Potency index, ratio of fluconazole MIC to test compound MIC for activity against Cryptococcus neoformans ATCC 32609.
Test [6] deals with Candida albicans. In words: Potency index, ratio of fluconazole MIC to test compound MIC for Candida albicans ATCC 76615.
In test [7] the test system is Microsporum canis. In words: Potency index, ratio of fluconazole MIC to test compound MIC for Microsporum canis.
The test system of test [8] is Candida tropicalis. In words: Potency index, ratio of fluconazole MIC to test compound MIC for Candida tropicalis.
Test [9] has as its system Microsporum canis. In words: Antifungal activity against Microsporum canis after 24 hrs by microbroth dilution method.
The test system of test [10] is Aspergillus fumigatus. In words: Potency index, ratio of fluconazole MIC to test compound MIC for Aspergillus fumigatus.
For test [11], the system named is Candida tropicalis. In words: Antifungal activity against Candida tropicalis after 24 hrs by microbroth dilution method.
The subject of test [12] is Trichophyton rubrum. In words: Potency index, ratio of fluconazole MIC to test compound MIC for Trichophyton rubrum.
In test [13] the test system is Candida tropicalis. In words: Antifungal activity against Candida tropicalis. The settings on record: Candida tropicalis.
Test [14] concerns Candida albicans. In words: Antifungal activity against Candida albicans. The settings on record: Candida albicans.
The test system of test [15] is Candida parapsilosis. In words: Antifungal activity against Candida parapsilosis. Conditions: Lodderomyces parapsilosis.
Test [16] has as its system Pichia kudriavzevii. In words: Antifungal activity against Candida krusei.
Test [17] concerns Cryptococcus neoformans. In words: Antifungal activity against Cryptococcus neoformans. The settings on record: Cryptococcus neoformans.
Test [18] relates to Aspergillus fumigatus. In words: Antifungal activity against Aspergillus fumigatus. The settings on record: Aspergillus fumigatus; read-out: MIC.

Each structure is given as a SMILES string. Values after ≈ are worked out from the molar mass of the structure shown.

On to `OC(CN(Cc1ccccc1Cl)C1CC1)(Cn1cncn1)c1ccc(F)cc1F` (centres undefined), for which the Ratio in test [1], in test [5], in test [6], in [7], in test [8] and in test [10] was 4 each time. The Ratio in test [12] came out at 4. Besides, the MIC80 in [2], in [3], in test [4], in test [9] and in test [11] was 0.125 µg/mL (≈ 0.298 µM) throughout.

In the case of `CN(CC(=O)Nc1ccc(C(C)(C)C)cc1)CC(O)(Cn1cncn1)c1ccc(F)cc1F` (centres undefined), the MIC80 in [13] was 0.25 to 1 µg/mL (≈ 0.546 to 2.19 µM); in test [14] it was 0.0156 µg/mL (≈ 0.0341 µM); in test [15] it was 0.25 to 1 µg/mL (≈ 0.546 to 2.19 µM); in [16], 0.25 to 1 µg/mL (≈ 0.546 to 2.19 µM); in [17] it was 0.0156 µg/mL (≈ 0.0341 µM).

`Cc1ccccc1CN(CC(O)(Cn1cncn1)c1ccc(F)cc1F)C1CC1` (centres undefined): the Ratio in test [1], in test [5], in [6], in test [7], in [8] and in test [10] was 4 throughout. Further, the Ratio in test [12] was 4. For the same molecule, the MIC80 in [2], in test [3], in [4], in test [9] and in test [11] was 0.125 µg/mL (≈ 0.314 µM) in each case.

For `CCCCOc1ccccc1N1CCN(CCc2nnn(CC(O)(Cn3cncn3)c3ccc(F)cc3F)n2)CC1` (centres undefined), the MIC in test [13] (read-out: MIC), in [14] (read-out: MIC), in test [16], in test [17] (read-out: MIC) and in test [18] was 1 to 8 µg/mL (≈ 1.76 to 14.1 µM) throughout.

On to `Cc1cc(C)cc(NC(=O)CN(C)CC(O)(Cn2cncn2)c2ccc(F)cc2F)c1` (centres undefined), for which the MIC80 in [13] is 0.25 to 1 µg/mL (≈ 0.582 to 2.33 µM); in test [14] it was 0.0156 µg/mL (≈ 0.0363 µM); in test [15] it was 0.25 to 1 µg/mL (≈ 0.582 to 2.33 µM); in [16], 0.25 to 1 µg/mL (≈ 0.582 to 2.33 µM); in [17] it was 0.0156 µg/mL (≈ 0.0363 µM).

Regarding `Cc1ccc(NC(=O)CN(C)CC(O)(Cn2cncn2)c2ccc(F)cc2F)c(C)c1` (centres undefined), the MIC80 in test [13] is 0.25 to 1 µg/mL (≈ 0.582 to 2.33 µM); in [14], 0.0156 µg/mL (≈ 0.0363 µM); in test [15], 0.25 to 1 µg/mL (≈ 0.582 to 2.33 µM); in [16], 0.25 to 1 µg/mL (≈ 0.582 to 2.33 µM); in test [17], 0.0156 µg/mL (≈ 0.0363 µM).

For the molecule `OC(CN(Cc1ccc(F)cc1F)C1CC1)(Cn1cncn1)c1ccc(F)cc1F` (centres undefined), the Ratio in test [1], in [5], in test [6], in test [7], in [8] and in [10] was 4 in each case. Also, the Ratio in [12] came to 4. The MIC80 in test [2], in test [3], in test [4], in [9] and in test [11] was 0.125 µg/mL (≈ 0.297 µM) each time.

As to `CN(CC(=O)Nc1ccc(Cl)c(Cl)c1)CC(O)(Cn1cncn1)c1ccc(F)cc1F` (centres undefined), the MIC80 is 0.25 to 1 µg/mL (≈ 0.532 to 2.13 µM) in test [13]; 0.0156 µg/mL (≈ 0.0332 µM) in [14]; 0.25 to 1 µg/mL (≈ 0.532 to 2.13 µM) in test [15]; 0.25 to 1 µg/mL (≈ 0.532 to 2.13 µM) in test [16]; 0.0156 µg/mL (≈ 0.0332 µM) in [17].

Consider `OC(CN(Cc1ccccc1F)C1CC1)(Cn1cncn1)c1ccc(F)cc1F` (centres undefined), for which the Ratio in [1], in test [5], in test [6], in test [7], in [8] and in test [10] was 4 each time. Further, the Ratio in [12] stood at 4. The MIC80 in test [2], in test [3], in test [4], in test [9] and in test [11] was 0.125 µg/mL (≈ 0.311 µM) each time.

In the case of `OC(CN(Cc1ccc(Cl)cc1)C1CC1)(Cn1cncn1)c1ccc(F)cc1F` (centres undefined), the Ratio in [1], in test [5], in test [6], in [7], in test [8] and in test [10] was 4 each time. Besides, the Ratio in [12] came out at 4. The MIC80 in test [2], in test [3], in test [4], in test [9] and in [11] was 0.125 µg/mL (≈ 0.298 µM) each time.

With `OC(CN(Cc1ccccc1Br)C1CC1)(Cn1cncn1)c1ccc(F)cc1F` (centres undefined), the Ratio in test [1], in test [5], in test [6], in test [7], in test [8] and in [10] was 4 each time. Moreover, in [12], the Ratio is on record as 4. Moreover, the MIC80 in test [2], in test [3], in test [4], in [9] and in [11] was 0.125 µg/mL (≈ 0.27 µM) in each case.

With `OC(CN(Cc1ccccc1)C1CC1)(Cn1cncn1)c1ccc(F)cc1F` (centres undefined), the Ratio in test [1], in test [5], in [6], in test [7], in [8] and in [10] was 4 each time. For the same molecule, the Ratio in [12] is 4. Further, the MIC80 in test [2], in [3], in test [4], in [9] and in test [11] was 0.125 µg/mL (≈ 0.325 µM) in each case.

In general, MIC80 refers to an inhibitory concentration at the 80% level, which refers to growth in some studies and to a panel of isolates in others. Read a low MIC80 as higher susceptibility. By MIC is commonly meant the lowest concentration found to suppress growth.

The values above are taken from ChEMBL document CHEMBL4396865, “Current advances of triazole alcohols derived from fluconazole: Design, in vitro and in silico studies” (2019).
